Results as given in patent US11286256B2, “Bicyclic inhibitors of histone deacetylase” (Alkermes, Inc., priority 2017, dated 2022).
≈ marks a conversion by molar mass, not a printed value.

Experiments:
[1] = Aqueous kinetic solubility measurement; type: physicochemical
Description: Compounds were evaluated for their kinetic solubility in buffer or water. Aliquots of 8 μL of reference and test compound stock solutions (10 mM in DMSO) were added into 792 μL of 100 mM phosphate buffer (0.1 M NaPO4, pH 7.4). Final DMSO concentration is 1%. The sample tubes were shaken for 1 hour (1000 rpm) at room temperature. A calibration curve was prepared using 300 μM spiking solution (SS) in MeOH/ACN(4:1) (SS=add 6 μL 10 mM compound in 194 μL MeOH/ACN(4:1)). Samples were centrifuged for 10 min (12000 rpm) to precipitate undissolved particles, and the supernatants were transferred to a new tube or plate. Supernatants were diluted 10 times and 100 times with 100 mM buffer. Samples were then prepared for analysis by LC-MS/MS (Add 5 μL of compound samples (not diluted, 10 times diluted and 100 times diluted) and standard curve samples to 95 μL of ACN containing internal standard. Internal standards used are Propranolol, Ketoconazole, and Tamoxifen.

[2] = test system: dendritic spines of CA1 pyramidal neurons, dorsal hippocampus; experiment: Dendritic spine morphology in dorsal hippocampus (CA1) after 14 days of oral treatment; type: in vivo, wild type mice (C57BL/6J); settings: for Thin Spines (% increase over vehicle) / Total Spines (% increase over vehicle): 14 days, WT mice; for dendritic spine density (in words, earlier studies): Compound 2 at 1, 3, 6 and 20 mg/kg/day, Compound 1 at 10 mg/kg/day
Description: Compounds were evaluated to determine whether sub-chronic treatment could produce changes in dendritic spine morphology in the CA1 region of the dorsal hippocampus in wild type (WT) mice. Compounds were administered orally to wild type mice, daily for 14 days. Doses were chosen based on pharmacokinetic data, brain exposure, and potency. Effects of compounds treatments on dendritic spine morphology in the CA1 region of the dorsal hippocampus were then evaluated.
Male C57BL/6J mice (7-8-weeks old, n=7 per group) were dosed orally with Rodin compounds or vehicle (20% HPßCD) daily for 14 days. Doses for compounds were chosen based on exposure data from pharmacokinetic experiments. […] Mice were sacrificed 24 hours after the last dose, and underwent transcardial perfusion for preparation of brain samples.
Mice were anesthetized with chloral hydrate (4% chloral hydrate in saline, 10 ml/kg) before undergoing transcardial perfusion with 4% PFA in 1×PBS (pH7.4, room temperature) at 20 mL/min for 54 seconds. Immediately after the perfusion, mice were decapitated and their brain extracted. Brains were postfixed in scintillation vials containing 4% PFA (5-10 ml) for 4 min. Brains were sectioned using a tissue vibratome (Leica VT1000) to collect sections (300 μm thick) from the anterior to posterior extremes of each brain.
Superresolution laser-scanning confocal microscopy (Zeiss LSM880, Airyscan) was performed using a 63× objective (1.42 NA) to scan individually labeled neurons at high resolution (scan resolution=0.06 um μm/pixel; axial resolution=0.06 um μm/focal step). Target neurons were identified in the brain region of interest by epifluorescence navigation using anatomical location and cell morphology. Microscopy was performed blind to experimental conditions. A minimum of 7 mice were tested in each experimental condition. A minimum of 5 samples per mouse (range=5-6) were measured for each segment.
Blind deconvolution (AutoQuant) was applied to raw three-dimensional digital images which were then analyzed for spine density and morphology by trained analysts. Individual spines were measured manually for (a) head diameter, (b) length, and (c) neck thickness from image Z-stacks using custom-built Afraxis ESP software. Each dendrite was analyzed by 3 (on average) independent analysts. Automated image assignment software distributed images to analysts in a randomized manner and ensured that each analyst performed measurements of near equal numbers of dendrites per group. Analysts were blinded to all experimental conditions (including treatment, brain region, and cell type).
Each identified dendritic spine was measured for (a) spine length, (b) spine head diameter, and (c) neck width. Population distributions of each measure were compiled for each dendritic sample and pooled by group. Raw dendritic spine morphometric values (spine length, head diameter, neck width) were assembled into a scheme used to describe classic spine phenotypes (e.g. mushroom, stubby, etc.). Total spine density was also reported as the sum of the density of all subclasses.
General Observations. […] For adequate study to study comparisons, total spine density data were normalized to % vehicle levels
[formula] Data were then reported as mean+/−SEM of total spine density (% increase from Vehicle).

In the case of `COCc1cc2c(cn1)CN(C(=O)Nc1nc(-c3ccc(F)cc3F)ccc1N)C2` [Compound 1], the “solubility (in words)” value [1] was “slightly reduced”, the solubility at 1 h ([1]; aqueous buffer, kinetic from dmso stock, kinetic, 100 mM phosphate buffer pH 7.4, 1% DMSO) was 27 µM (≈ 11.1 µg/mL) and the “Thin Spines (% increase over vehicle)” value ([2]; 0.1 mg/kg PO daily) was 13.8%. The “Total Spines (% increase over vehicle)” value ([2]; 0.1 mg/kg PO daily) was 12.2%, the “Thin Spines (% increase over vehicle)” value ([2]; 0.3 mg/kg PO daily) was 23.2% and the “Total Spines (% increase over vehicle)” value ([2]; 0.3 mg/kg PO daily) was 21.3%. For the same compound, the “Thin Spines (% increase over vehicle)” value ([2]; 1 mg/kg PO daily) was 45.1%, the “Total Spines (% increase over vehicle)” value ([2]; 1 mg/kg PO daily) was 34.6% and the “Thin Spines (% increase over vehicle)” value ([2]; 3 mg/kg PO daily) was 25.3%. For the same compound, the “Total Spines (% increase over vehicle)” value ([2]; 3 mg/kg PO daily) was 26.7%, the “Thin Spines (% increase over vehicle)” value ([2]; 10 mg/kg PO daily) was 19.9% and the “Total Spines (% increase over vehicle)” value ([2]; 10 mg/kg PO daily) was 25.1%. For the same compound, the “dendritic spine density (in words, earlier studies)” value [2] was “increases in dendritic spine density”.

For `Cc1ncc2c(n1)CN(C(=O)Nc1nc(-c3cccs3)ccc1N)C2` [Compound 2], the “Thin Spines (% increase over vehicle)” value ([2]; 0.1 mg/kg PO daily) was 11.3%, the “Total Spines (% increase over vehicle)” value ([2]; 0.1 mg/kg PO daily) was 8.1% and the “Thin Spines (% increase over vehicle)” value ([2]; 1 mg/kg PO daily) was 21.2%. The “Total Spines (% increase over vehicle)” value ([2]; 1 mg/kg PO daily) was 21.4%, the “Thin Spines (% increase over vehicle)” value ([2]; 3 mg/kg PO daily) was 32.2% and the “Total Spines (% increase over vehicle)” value ([2]; 3 mg/kg PO daily) was 24.7%. For the same compound, the “Thin Spines (% increase over vehicle)” value ([2]; 6 mg/kg PO daily) was 35.4%, the “Total Spines (% increase over vehicle)” value ([2]; 6 mg/kg PO daily) was 15% and the “Thin Spines (% increase over vehicle)” value ([2]; 20 mg/kg PO daily) was 37.4%. For the same compound, the “Total Spines (% increase over vehicle)” value ([2]; 20 mg/kg PO daily) was −0.12% and the “dendritic spine density (in words, earlier studies)” value [2] was “increases in dendritic spine density”.
